Results on 13 compounds are retold here after US11566007B2, “Ras inhibitors” (Revolution Medicines, Inc., priority 2019, dated 2023).

Assay [1] deals with NCI-H358 (K-Ras G12C). The assay is described as follows: CellTiter-Glo cell viability assay, NCI-H358. The assay is classed as cell-based, human. The note with it: Homo sapiens, NCI-H358, 120 h, NCI-H358, 5-day treatment; class symbols; read-out: Additional H358 Cell Viability assay data (K-Ras G12C, IC50). In outline: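 Four-parameter logistic fits were applied to luminescence data normalized against DMSO-treated wells. Readings were taken on day 5 following direct compound addition, after roughly 30 minutes at room temperature.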
A general note: Cellular ATP, detected with luciferase, serves as a proxy for viable cell number.

In assay [2] the target is K-Ras G12C (Homo sapiens (Human), UniProt P01116+P62937, G12C). The assay can be described thus: Ras-Raf (BRAF RBD) disruption / FRET / MOA assay, KRAS G12C. The assay is classed as biochemical. Particulars: KRAS G12C; Ras-Raf disruption/FRET/MOA assay; read-out: IC50* KRAS G12C FRET data. In outline:
(§1)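 Ras:RAF disruption was scored as a fall in TR-FRET ratio relative to DMSO. Compound ranged in 3-fold steps over 10 points from 30 μM final; incubation ran 3 h at 25° C, detection antibodies a further 1.5 h. Reported as IC50.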

Assay [3] concerns the target KRAS G12S (Homo sapiens (Human), UniProt P01116+P62937, G12S). The assay is described as follows: Ras-Raf (BRAF RBD) disruption / FRET / MOA assay, KRAS G12S. Type of assay: biochemical. The note with it: Ras-Raf disruption/FRET/MOA assay; class symbols; read-out: KRAS G12S FRET data IC50. In outline:
as §1

In assay [4] the target is KRAS G12D (Homo sapiens (Human), UniProt P01116+P62937, G12D). The assay can be described thus: Ras-Raf (BRAF RBD) disruption / FRET / MOA assay, KRAS G12D. Type of assay: biochemical. Particulars: Ras-Raf disruption/FRET/MOA assay; class symbols; read-out: KRAS G12D FRET data IC50. In outline: as §1
Assay [5] addresses NRAS G12C (Homo sapiens (Human), UniProt P01111+P62937, G12C). The assay is described as follows: Ras-Raf (BRAF RBD) disruption / FRET / MOA assay, NRAS G12C. Type of assay: biochemical. The note with it: read-out: IC50* NRAS G12C FRET data. In outline: as §1
Assay [6] deals with NRAS Q61R (Homo sapiens (Human), UniProt P01111+P62937, Q61R). The assay can be described thus: Ras-Raf (BRAF RBD) disruption / FRET / MOA assay, NRAS Q61R. The assay is classed as biochemical. The note with it: NRAS Q61R; Ras-Raf disruption/FRET/MOA assay; read-out: IC50* NRAS Q61R FRET data. In outline:
(§2)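 TR-FRET disruption of nucleotide-loaded Ras binding to BRAF RBD via compound-driven ternary complex with cyclophilin A. Compound as 10-point 3-fold series from 30 μM final, 3 h at 25° C, then anti-His Eu-W1024 (10 nM) and anti-GST allophycocyanin (50 nM) for 1.5 h. IC50 from decreased FRET ratio versus DMSO.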

The target of assay [7] is NRAS Q61K (Homo sapiens (Human), UniProt P01111+P62937, Q61K). The assay is described as follows: Ras-Raf (BRAF RBD) disruption / FRET / MOA assay, NRAS Q61K. The assay is classed as biochemical. Particulars: NRAS Q61K; Ras-Raf disruption/FRET/MOA assay; read-out: IC50* NRAS Q61K FRET data. In outline: as §2
Chain of NRAS Q61K (P01111 whole entry Q61K): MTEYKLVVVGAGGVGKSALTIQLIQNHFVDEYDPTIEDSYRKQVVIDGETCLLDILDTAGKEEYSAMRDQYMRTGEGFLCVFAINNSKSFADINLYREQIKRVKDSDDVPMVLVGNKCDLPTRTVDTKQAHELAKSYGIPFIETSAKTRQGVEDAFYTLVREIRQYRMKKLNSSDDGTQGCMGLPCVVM
Chain of NRAS Q61K (P62937 whole entry): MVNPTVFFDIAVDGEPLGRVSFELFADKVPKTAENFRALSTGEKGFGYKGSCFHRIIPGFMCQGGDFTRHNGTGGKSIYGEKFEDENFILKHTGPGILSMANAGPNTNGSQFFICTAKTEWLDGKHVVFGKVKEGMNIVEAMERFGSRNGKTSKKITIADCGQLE

Chain of K-Ras G12C (P01116-2 other isoform, or with tags, fused parts or gaps G12C): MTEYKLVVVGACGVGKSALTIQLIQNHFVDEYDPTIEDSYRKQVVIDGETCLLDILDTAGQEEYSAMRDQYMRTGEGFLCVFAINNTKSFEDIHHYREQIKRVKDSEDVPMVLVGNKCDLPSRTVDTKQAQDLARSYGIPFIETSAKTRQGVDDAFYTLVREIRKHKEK
Chain of K-Ras G12C (P62937 whole entry): as the sequence (P62937 whole entry) above
Chain of NRAS G12C (P01111 whole entry G12C): as the sequence (P01111 whole entry Q61K) above, with G12C, K61Q counted along it
Chain of NRAS G12C (P62937 whole entry): as the sequence (P62937 whole entry) above
Chain of KRAS G12D (P01116-2 other isoform, or with tags, fused parts or gaps G12D): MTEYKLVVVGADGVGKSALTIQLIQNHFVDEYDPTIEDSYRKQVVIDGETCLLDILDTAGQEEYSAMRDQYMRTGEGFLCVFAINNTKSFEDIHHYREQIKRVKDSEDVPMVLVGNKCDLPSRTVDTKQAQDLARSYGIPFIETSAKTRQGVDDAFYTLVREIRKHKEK
Chain of KRAS G12D (P62937 whole entry): as the sequence (P62937 whole entry) above
Chain of KRAS G12S (P01116-2 other isoform, or with tags, fused parts or gaps G12S): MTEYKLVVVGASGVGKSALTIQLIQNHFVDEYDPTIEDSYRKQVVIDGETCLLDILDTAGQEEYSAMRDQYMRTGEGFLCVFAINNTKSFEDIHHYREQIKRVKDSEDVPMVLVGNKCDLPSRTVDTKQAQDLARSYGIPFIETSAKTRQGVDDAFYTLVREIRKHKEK
Chain of KRAS G12S (P62937 whole entry): as the sequence (P62937 whole entry) above
Chain of NRAS Q61R (P01111 whole entry Q61R): as the sequence (P01111 whole entry Q61K) above, with K61R counted along it
Chain of NRAS Q61R (P62937 whole entry): as the sequence (P62937 whole entry) above

Take `CCn1c(-c2cccnc2[C@H](C)OC)c2c3cc(ccc31)-c1csc(n1)C[C@H](NC(=O)[C@@H](COC1CN(C(=O)C#CC(C)(C)N(C)C)C1)OC)C(=O)N1CCC[C@H](N1)C(=O)OCC(C)(C)C2` (atropisomer, axis not shown) [Example A660]: the IC50 (as a rule, the point on the concentration scale where inhibition reaches its midpoint) is below 0.01 µM in assay [1]; below 0.01 µM in assay [2]; 1 to 10 µM in assay [3]; 1 to 10 µM in assay [4]; below 0.01 µM in assay [5]; 1 to 10 µM in assay [6]. The IC50 in assay [7] fell in the range of 0.1 to 1 µM.

Turning to `C=CC(=O)N1CC[C@@]2(CCN2C(=O)N(C)[C@H](C(=O)N[C@H]2Cc3nc(cs3)-c3ccc4c(c3)c(c(-c3cccnc3[C@H](C)OC)n4CC)CC(C)(C)COC(=O)[C@@H]3CCCN(N3)C2=O)C(C)C)C1` (atropisomer, axis not shown) [Example A661], the IC50 was below 0.01 µM in assay [1]; 0.01 to 0.1 µM in assay [2]; 0.1 to 1 µM in assay [3]; 1 to 10 µM in assay [4]; 0.01 to 0.1 µM in assay [5]; 0.1 to 1 µM in assay [6]. In addition, in assay [7], the half-inhibitory concentration (IC50) lay in the range of 0.01 to 0.1 µM.

For the compound `CCn1c(-c2cccnc2[C@H](C)OC)c2c3cc(ccc31)C1=CCCN(C1)C[C@H](NC(=O)[C@@H](COC1CN(C(=O)C#CC(C)(C)N(C)C)C1)C(C)C)C(=O)N1CCC[C@H](N1)C(=O)OCC(C)(C)C2` (atropisomer, axis not shown) [Example A663, (2R)-2-(((1-(4-(dimethylamino)-4-methylpent-2-ynoyl)405yridine405-3-yl)oxy)methyl)-N-((6^3S,4S)-1^1-ethyl-1^2-(2-((S)-1-methoxyethyl)405yridine-3-yl)-10,10-dimethyl-5,7-dioxo-2^1,2^2,2^3,2^6,6^1,6^2,6^3,6^4,6^5,6^6-decahydro-1^1H-8-oxa-1(5,3)-indola-6(1,3)-pyridazina-2(5,1)-pyridinacycloundecaphane-4-yl)-3-methylbutanamide], the IC50 was below 0.01 µM in assay [1]; below 0.01 µM in assay [2]; above 10 µM in assay [3]; above 10 µM in assay [4]; below 0.01 µM in assay [5]; above 10 µM in assay [6]. For the same compound, the IC50 in assay [7] is above 10 µM.

On to `CCn1c(-c2cccnc2[C@H](C)OC)c2c3cc(ccc31)-c1csc(n1)C[C@H](NC(=O)[C@H](C(C)C)N(C)C(=O)N1CCN(C(=O)/C=C/CN3CCOCC3)C3(CC3)C1)C(=O)N1CCC[C@H](N1)C(=O)OCC(C)(C)C2` (atropisomer, axis not shown) [Example A665], for which the IC50 in assay [1] was below 0.01 µM; in assay [2] it was 0.01 to 0.1 µM; in assay [3], 0.01 to 0.1 µM; in assay [4], 0.1 to 1 µM; in assay [5] it was 0.01 to 0.1 µM; in assay [6], 0.01 to 0.1 µM. The IC50 in assay [7] fell in the range of 0.01 to 0.1 µM.

Regarding `CCn1c(-c2cccnc2[C@H](C)OC)c2c3cc(ccc31)-c1csc(n1)C[C@H](NC(=O)[C@H](C(C)C)N(C)C(=O)N1CCC3(CC1)CN(C(=O)/C=C/CN1CCOCC1)C3)C(=O)N1CCC[C@H](N1)C(=O)OCC(C)(C)C2` (atropisomer, axis not shown) [Example A669], the IC50 in assay [1] was 0.01 to 0.1 µM; in assay [2] it was 0.01 to 0.1 µM; in assay [3], 0.1 to 1 µM; in assay [4], 0.1 to 1 µM; in assay [5], 0.01 to 0.1 µM; in assay [6], 0.01 to 0.1 µM. Further, in assay [7], the IC50 is 0.01 to 0.1 µM.

`CCn1c(-c2cccnc2[C@H](C)OC)c2c3cc(ccc31)-c1csc(n1)C[C@H](NC(=O)[C@H](C(C)C)N(C)C(=O)N1CCC3(CC1)CN(C(=O)/C=C/CN1CCCCC1)C3)C(=O)N1CCC[C@H](N1)C(=O)OCC(C)(C)C2` (atropisomer, axis not shown) [Example A670]: the IC50 in assay [1] was in the range of 0.01 to 0.1 µM; in assay [2], 0.1 to 1 µM; in assay [3] it was 0.1 to 1 µM; in assay [4], 1 to 10 µM; in assay [5], 0.1 to 1 µM; in assay [6] it was 0.1 to 1 µM. Further, the IC50 in assay [7] is 0.1 to 1 µM.

With `C/C=C/C(=O)N1CC2(CCN(C(=O)N(C)[C@H](C(=O)N[C@H]3Cc4nc(cs4)-c4ccc5c(c4)c(c(-c4cccnc4[C@H](C)OC)n5CC)CC(C)(C)COC(=O)[C@@H]4CCCN(N4)C3=O)C(C)C)CC2)C1` (atropisomer, axis not shown) [Example A671], the IC50 in assay [1] was 0.01 to 0.1 µM; in assay [2] it was 0.01 to 0.1 µM; in assay [3], 0.1 to 1 µM; in assay [4], 0.1 to 1 µM; in assay [5], 0.01 to 0.1 µM; in assay [6], 0.1 to 1 µM. Moreover, in assay [7], the IC50 fell in the range of 0.01 to 0.1 µM.

For `CCn1c(-c2cccnc2[C@H](C)OC)c2c3cc(ccc31)-c1nc(co1)C[C@H](NC(=O)[C@@H](COC1CN(C(=O)C#CC(C)(C)N(C)C)C1)C(C)C)C(=O)N1CCC[C@H](N1)C(=O)OCC(C)(C)C2` (atropisomer, axis not shown) [Example A675, (2R)-2-(((1-(4-(dimethylamino)-4-methylpent-2-ynoyl)azetidin-3-yl)oxy)methyl)-N-((6^3S,4S,Z)-1^1-ethyl-1^2-(2-((S)-1-methoxyethyl)pyridin-3-yl)-10,10-dimethyl-5,7-dioxo-6^1,6^2,6^3,6^4,6^5,6^6-hexahydro-1^1H-8-oxa-2(2,4)-oxazola-1(5,3)-indola-6(1,3)-pyridazinacycloundecaphane-4-yl)-3-methylbutanamide], the IC50 was below 0.01 µM in assay [1]; 0.01 to 0.1 µM in assay [2]; above 10 µM in assay [3]; above 10 µM in assay [4]; 0.01 to 0.1 µM in assay [5]; above 10 µM in assay [6]. The IC50 in assay [7] is above 10 µM.

As for `C=CC(=O)N1CCN(C(=O)N(C)[C@H](C(=O)N[C@H]2Cc3nc(cs3)-c3ccc4c(c3)c(c(-c3cccnc3[C@H](C)OC)n4CC(F)(F)F)CC(C)(C)COC(=O)[C@@H]3CCCN(N3)C2=O)C(C)C)CC12CC2` (atropisomer, axis not shown) [Example A679], the IC50 in assay [1] lay in the range of 0.01 to 0.1 µM; in assay [2], 0.01 to 0.1 µM; in assay [3] it was 0.01 to 0.1 µM; in assay [4] it was 0.1 to 1 µM; in assay [5], 0.01 to 0.1 µM; in assay [6], 0.01 to 0.1 µM. For the same compound, in assay [7], the IC50 was in the range of 0.01 to 0.1 µM.

As to `C=C(OC)C(=O)N1CC2(CCN(C(=O)N(C)[C@H](C(=O)N[C@H]3Cc4nc(cs4)-c4ccc5c(c4)c(c(-c4cccnc4[C@H](C)OC)n5CC)CC(C)(C)COC(=O)[C@@H]4CCCN(N4)C3=O)C(C)C)CC2)C1` (atropisomer, axis not shown) [Example A681], the IC50 in assay [1] lay within 0.01 to 0.1 µM; in assay [2] it was 0.01 to 0.1 µM; in assay [3], 0.1 to 1 µM; in assay [4], 0.1 to 1 µM; in assay [5] it was 0.01 to 0.1 µM; in assay [6], 0.1 to 1 µM. In assay [7], the IC50 was 0.01 to 0.1 µM.

For `C=C(F)C(=O)N1CC2(CCN(C(=O)N(C)[C@H](C(=O)N[C@H]3Cc4nc(cs4)-c4ccc5c(c4)c(c(-c4cccnc4[C@H](C)OC)n5CC)CC(C)(C)COC(=O)[C@@H]4CCCN(N4)C3=O)C(C)C)CC2)C1` (atropisomer, axis not shown) [Example A682], the 50% inhibitory concentration (IC50) fell in the range of 0.01 to 0.1 µM in assay [1]; 0.01 to 0.1 µM in assay [2]; 0.1 to 1 µM in assay [3]; 0.1 to 1 µM in assay [4]; 0.01 to 0.1 µM in assay [5]; 0.1 to 1 µM in assay [6]. Moreover, in assay [7], the IC50 was in the range of 0.01 to 0.1 µM.

In the case of `C=CC(=O)N1CC2(CCN2C(=O)N(C)[C@H](C(=O)N[C@H]2Cc3cccc(c3)-c3ccc4c(c3)c(c(-c3cccnc3[C@H](C)OC)n4CC)CC(C)(C)COC(=O)[C@@H]3CCCN(N3)C2=O)C(C)C)C1` (atropisomer, axis not shown) [Example A684], the IC50 was below 0.01 µM in assay [1]; below 0.01 µM in assay [2]; 0.1 to 1 µM in assay [3]; 1 to 10 µM in assay [4]; below 0.01 µM in assay [5]; 0.1 to 1 µM in assay [6]. In addition, in assay [7], the IC50 fell in the range of 0.1 to 1 µM.

Take `C=CC(=O)N1C[C@H]2CN(C(=O)N(C)[C@H](C(=O)N[C@H]3Cc4nc(cs4)-c4ccc5c(c4)c(c(-c4cccnc4[C@H](C)OC)n5CC)CC(C)(C)COC(=O)[C@@H]4CCCN(N4)C3=O)C(C)C)[C@H]2C1` (atropisomer, axis not shown) [Example A686]: the IC50 is below 0.01 µM in assay [1]; 0.01 to 0.1 µM in assay [2]; 0.1 to 1 µM in assay [3]; 1 to 10 µM in assay [4]; 0.01 to 0.1 µM in assay [5]; 0.1 to 1 µM in assay [6]. For the same compound, the IC50 in assay [7] lay within 0.01 to 0.1 µM.
